Earlier results, collected in PMC7269146, “Jingzhaotoxin-X, a gating modifier of Kv4.2 and Kv4.3 potassium channels purified from the venom of the Chinese tarantula Chilobrachys jingzhao” (The Journal of Venomous Animals and Toxins Including …, 2020).
Entries after “also recorded” stand apart in the source; their conditions may differ. Read-outs that look alike come from different tables or passages of the source.

Tests used:
Kv2 channels = conditions: ref [40], [41]; cited from earlier work
Nav1.5 channels = conditions: cited from earlier work
Source text: (§1) Table 1. Characterization of the main peptides from C. jingzhao venom | column: Main pharmacological activity

Kv2.1 channels = conditions: cited from earlier work
Source text: (§2) Table 1. Characterization of the main peptides from C. jingzhao venom | column: Main pharmacological activity || The tarantula Chilobrachys jingzhao is one of the largest venomous spiders in the south of China. Peptide toxins purified from spider venom provide crucial approaches to investigating Kv4 channels. […] Jingzhaotoxin-XI ...

rat cardiac Nav channels = conditions: ref [10]; cited from earlier work
Source text: as §1

Nav channels = conditions: cited from earlier work
Source text: as §1

Kv4.3 or Kv4.2 = conditions: ref [14], [19]-[21]; cited from earlier work
Source text: The tarantula Chilobrachys jingzhao is one of the largest venomous spiders in the south of China. Peptide toxins purified from spider venom provide crucial approaches to investigating Kv4 channels. […] Jingzhaotoxin-XI ...

Kv4 channels = conditions: cited from earlier work
Source text: as §2

Kv4.1 channels = conditions: ref [17]; cited from earlier work
Source text: as §2

Kv channel = conditions: ref [18]; cited from earlier work
Source text: as §1

calcium channel = conditions: ref [35]; cited from earlier work
Source text: A total of 6 cysteine residues were highly conserved among each spider toxin at specific locations.

HaTx1: gating-modifying toxin (ECRYLFGGCKTTSDCCKHLGCKFRDKYCAWDFTFS; UniProt P56852 50-84, looked up)
suppression of Kv2 channels (Kv2 channels): suppressing Kv2 channels

Jingzhaotoxin-I
Main pharmacological activity, Nav1.5 (Nav1.5 channels; ref [7]-[9]): Inhibits Nav1.5 channels inactivation and Kv2.1 channels
Main pharmacological activity, Kv2.1 (Kv2.1 channels; ref [7]-[9]): Inhibits Nav1.5 channels inactivation and Kv2.1 channels

Jingzhaotoxin-II
Main pharmacological activity, rat cardiac Nav channels (rat cardiac Nav channels): Inhibits inactivation of both rat cardiac Nav channels and Nav1.5 channels
Main pharmacological activity, Nav1.5 (Nav1.5 channels; ref [10]): Inhibits inactivation of both rat cardiac Nav channels and Nav1.5 channels

Jingzhaotoxin-III
Main pharmacological activity, Nav1.5 (Nav1.5 channels; ref [11], [12]): Inhibits Nav1.5 and Kv2.1 channels
Main pharmacological activity, Kv2.1 (Kv2.1 channels; ref [11], [12]): Inhibits Nav1.5 and Kv2.1 channels

Jingzhaotoxin-IV
Main pharmacological activity, Nav channels (Nav channels; ref [13]): Modifies the activation and inactivation of Nav channels

Jingzhaotoxin-V
Main pharmacological activity, Nav channels (Nav channels): Inhibits both Nav and Kv4 channels
inhibition of Kv4.3 or Kv4.2 (Kv4.3 or Kv4.2): inhibit either Kv4.3 or Kv4.2, or both of these channels
Main pharmacological activity, Kv4 channels (Kv4 channels): Inhibits both Nav and Kv4 channels

Jingzhaotoxin-XI
Main pharmacological activity, Nav1.5 (Nav1.5 channels; ref [15], [16]): Inhibits Nav1.5 inactivation and Kv2.1 channels
Main pharmacological activity, Kv2.1 (Kv2.1 channels; ref [15], [16]): Inhibits Nav1.5 inactivation and Kv2.1 channels

Jingzhaotoxin-XII
Main pharmacological activity, Kv4.1 (Kv4.1 channels): specific Kv4.1 channel-gating modifier; also recorded: Inhibits Kv4.1 channels

Jingzhaotoxin-XIII
Main pharmacological activity, Kv channel (Kv channel): Modifies Kv channel gating

SNX-482 (GVDKAGCRYMFGGCSVNDDCCPRLGCHSLFSYCAWDLTFSD; UniProt P56854 1-41, looked up)
inhibition of Kv4.3 or Kv4.2 (Kv4.3 or Kv4.2): inhibit either Kv4.3 or Kv4.2, or both of these channels

ω-grammotoxin SIA
activity on calcium channel (calcium channel): blocker of calcium channel
